Data: patent US20240041796A1, “ANTI-INFLAMMATORY COMPOSITION COMPRISING N-BENZYL-N-METHYLDECAN-1-AMINE OR A DERIVATIVE THEREOF AS AN ACTIVE INGREDIENT” (PUSAN NATIONAL UNIVERSITY INDUSTRY-UNIVERSITY COOPERATION …, priority 2022, published 2024)

Columns and labels:
DBA/J1 male mice = experiment: Rheumatoid arthritis model induced by type 2 bovine collagen, oral administration; assay type: in vivo, mouse; conditions: for inflammation and synovitis of joint tissues: H&E stained joint sections, FIG. 5A-B; for expression of HO-1 in the joints / expression of Nrf2 in the joints: immunoblotting, FIG. 6B; for length of the spleen / weight of the spleen / swelling of the feet / weight loss caused by rheumatism induced by collagen: oral 20 mg/body weight Kg for 21 days; for length of the spleen / weight of the spleen: vs control, FIG. 4C-D; for swelling of the feet: vs soybean oil control, FIG. 4A-B; for weight loss caused by rheumatism induced by collagen: FIG. 4B
Procedure: Rheumatoid arthritis was induced in 7-week-old DBA/J1 male mice. We thoroughly mixed the type 2 collagen at a concentration of 2 mg/mL with CFA (Complete Freund's Adjuvant) in the mixing ratio 1:1. We injected 0.1 mL (100 μg) of the mixture intradermally to a position away 2 cm from a base of the tail. After 2 weeks, we mixed the type 2 collagen with IFA instead of CFA in the mixing ratio 1:1. We administered the mixture subcutaneously to the base of the tail in the same amount and volume as those in the first injection. After 3 days, we grouped the mice into 4 groups and performed second administration thereto.
In one example, BMDA (FMJ-G0) and a derivative thereof (DMMA, FMJ-G4) at a concentration of 2.5 mg/mL were orally administered to male mice in a volume of 200 μL (20 mg/body weight Kg) for 21 days. In a control group, soybean oil was orally administered thereto.
During the experiment, the insteps of the forelimbs and hindlimbs were measured with a caliper three times a week, and the mice were suffocated, and joint areas were prepared for immunohistochemical staining and immunoblotting. Moreover, the spleen was removed therefrom and a size thereof was measured. Further, blood was drawn through the hepatic portal vein to prepare serum. A specific method was as follows. • 1) Paraffin sections were prepared as the joints including the ankles of the forelimbs. At this time, decalcification is performed first, followed by sectioning the same at a thickness of 4 μm, and H&E staining. • 2) The cell lysis solution was added thereto, and then we crushed the tissue with a sonicator, which was prepared for immunoblotting. • 3) Trisol solution was added to the joint tissue, the tissue was pulverized in a sonicator, and centrifuged, and the Trisol solution was used to precipitate proteins and DNA for entire RNA separation, and the entire RNA was collected from the supernatant obtained via the centrifugation. c-DNA was synthesized using oligo-dT primer and reverse transcriptase, and then, quantitative qRT-PCR and immunoblotting were performed thereon.

male SD rats = experiment: DNBS-induced colitis model, enema administration; assay type: in vivo, rat; conditions: for inflammatory response caused by DNBS / length of the large intestine (colon) / ulcer scab: 500 μL of 200 μg/mL through the anus for 5 days; for inflammatory response caused by DNBS: FIG. 3A-B; for production amount of CNIC-3 chemokine: ELISA of colon supernatant, FIG. 3E; for body weight lost due to the DNBS treatment: FIG. 3C; for length of the large intestine (colon) / ulcer scab: vs DNBS+PBS group; for macrophage peroxidase (MPO) activity in colon: vs DNBS+PBS-treated rat, FIG. 3D
Procedure: For experimental colitis, male SD rats (250 to 260 g) were fasted one day before developing colitis. A water bottle was prepared so that only water could be consumed by the rats. Then, after anesthesia of the rats, a rubber cannula is inserted into the anus, and a solution in which 48.0 mg DNBS was dissolved in 0.4 mL of 50% alcohol was injected thereto through the cannula. This process was repeated for 3 days.
From the 4th day since the DNBS was inserted, anesthesia of the rats was carried out, and then BMDA (FMJ-G0) and a derivative thereof (DMMA, FMJ-G4) were diluted with PBS, and then 500 μL of the diluted substance was injected at a concentration of 200 μg/mL thereto through the anus. This process was repeated for 5 days. In a control group, DMSO was diluted in PBS at the same concentration and then was injected in the same way for 5 days. Thereafter, on day 6, the rats were suffocated, and the large intestine was removed therefrom to evaluate a level of colitis according to a known method.
Moreover, a portion of the large intestine was removed, placed in a cell lysis buffer (20 mM Tris-HCl [pH 7.5], 150 mM NaCl, 1 mM EDTA, 1% Triton X-100, 0.5% SDS), and subjected to ultrasonic treatment. Centrifugation was carried out to collect only the supernatant. We quantified the protein, and performed immunoblotting thereon.
Further, a portion of the supernatant obtained after the centrifugation as prepared for immunoblotting was used to measure the amount of the chemokine CINC-3 (Cytokine-induced neutrophil chemoattractant) based on ELISA. Moreover, in order to measure the level of activity of macrophages infiltrated into the distal colon, a titer of MPO (Myeloperoxidase) was measured. The distal colon was pulverized in a supersonic pulverizing device, was centrifuged to obtain the supernatant. Then, hydrogen peroxide was added to the supernatant for decomposition. Change in absorbance was measured at 460 nm for 1 minute.

NF-KB P65 protein = experiment: NF-KB P65 distribution in cytoplasm and nucleus of LPS-treated THP-1 cells, immunoblotting; assay type: cell-based, human; conditions: FIG. 2D
Excerpt: Moreover, the mononuclear THP-1 cell line treated with lipopolysaccharide (LPS) and BMDA/DMMA under the same conditions was partitioned into cytoplasmic and nuclear portions. Distribution of NF-KB P65 protein in the cytoplasm and nucleus was examined based on immunoblotting.

SMILES	inflammation and synovitis of joint tissues (DBA/J1 male mice)	expression of HO-1 in the joints (DBA/J1 male mice)	expression of Nrf2 in the joints (DBA/J1 male mice)	length of the spleen (DBA/J1 male mice)	weight of the spleen (DBA/J1 male mice)	swelling of the feet (DBA/J1 male mice)	weight loss caused by rheumatism induced by collagen (DBA/J1 male mice)	inflammatory response caused by DNBS (male SD rats)	production amount of CNIC-3 chemokine (male SD rats)	body weight lost due to the DNBS treatment (male SD rats)	length of the large intestine (colon) (male SD rats)	ulcer scab (male SD rats)	macrophage peroxidase (MPO) activity in colon (male SD rats)	NF-KB expression and migration in the nucleus (NF-KB P65 protein)	activity of the transcription factor NF-KB (NF-KB P65 protein)
CCCCCCCCCCN(C)Cc1ccccc1 [BMDA, N-benzyl-N-methyldecan-1-amine]	significantly reduced	increased	increased	reduced	reduced	much smaller	did not restore	significantly reduced	low	did not restore	no significant difference	much smaller	much lower	inhibited	inhibited
CCCCCCCCCCN(C)Cc1ccc(OC)cc1 [DMMA, Decyl-(4-methoxy-benzyl)-methyl-amine]	significantly reduced	increased	increased	reduced	reduced	much smaller	did not restore	significantly reduced	low	did not restore	larger than that of the DNBS+PBS-treated rat group	reduced	much lower	inhibited	inhibited
